# Patent publication US20220372448A1, “CELL LINE AND PRODUCING METHOD THEREOF” (University of Yamanashi, priority 2021, published 2022)
# Tested on: VeroE6/Rep #3 cells
# Experiment: MTS assay for cell survival rate of VeroE6/Rep #3 cells
# Conditions: 72 hours, EIDD-2801 20 μM, library compounds 10 μM
structure (smiles),measurement,value
"CC(C)C(=O)OC[C@H]1O[C@@H](n2ccc(NO)nc2=O)[C@H](O)[C@@H]1O [EIDD-2801, molnupiravir]",cell proliferation / cell survival (MTS assay) compared with DMSO negative control,a decrease in cell proliferation was not observed
